Molecular target: KRas (Homo sapiens, UniProt P01116, G12C)
Experiment: KRas degradation in NCI-H2030 cells by Western blot, normalized to GAPDH (data of Table 14)
Format: cell-based
Parameters: host or cells: NCI-H2030
Details: for Dmax: NCI-H2030
Method in brief: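 Degradation of endogenous homozygous G12C KRas is measured by immunoblot after serum starvation and compound exposure at three final concentrations (0.3, 1 and 3 μM). VHL-recruiting compounds are incubated 24 h and all others 72 h. Percent loss is calculated from GAPDH-normalized KRas relative to vehicle.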

Row | Compound | Percent Degradation at Indicated Concentration (μM) (H2030, 0.3 μM) | Percent Degradation at Indicated Concentration (μM) (H2030, 1 μM) | Percent Degradation at Indicated Concentration (μM) (H2030, 3 μM) | Dmax | also measured
1 | C=CC(=O)N1CCN(c2nc(NCCC(=O)N(C)CCOCCOCCNC(=O)c3ccc(NC(=O)[C@@H]4N[C@@H](CC(C)(C)C)[C@](C#N)(c5ccc(Cl)cc5F)[C@H]4c4cccc(Cl)c4F)c(OC)c3)nc3c(F)c(-c4cc(O)cc5ccccc45)c(Cl)cc23)CC1 [compound 302, (2R,3S,4R,5S)-N-(4-((2-(2-(2-(3-((4-(4-acryloylpiperazin-1-yl)-6-chloro-8-fluoro-7-(3-hydroxynaphthalen-1-yl)quinazolin-2-yl)amino)-N-methylpropanamido)ethoxy)eth-oxy)ethyl)carbamoyl)-2-methoxyphenyl)-3-(3-chloro-2-fluorophenyl)-4-(4-chloro-2-fluorophenyl)-4-cyano-5-neopentylpyrrolidine-2-carboxamide] | C (Percent Degradation: C ≤ 35) | C (Percent Degradation: C ≤ 35) | C (Percent Degradation: C ≤ 35) | ≤ 35% | –
2 | C=CC(=O)N1CCN(c2nc(NCCC(=O)N(C)CCOCCOCCOCCOCCNc3cccc4c3C(=O)N(C3CCC(=O)NC3=O)C4=O)nc3c(F)c(-c4cc(O)cc5ccccc45)c(Cl)cc23)CC1 (stereo not shown) [compound 59, 3-((4-(4-acryloylpiperazin-1-yl)-6-chloro-8-fluoro-7-(3-hydroxynaphthalen-1-yl)quinazolin-2-yl)amino)-N-(14-((2-(2,6-dioxopiperidin-3-yl)-1,3-dioxoisoindolin-4-yl)amino)-3,6,9,12-tetraoxatetradecyl)-N-methylpropanamide] | – | – | – | – | Percent Degradation at Indicated Concentration (μM): 0.1 (H2030 cells, 0.1 μM): C (C ≤ 35); Percent Degradation at Indicated Concentration (μM): 0.3 (H2030 cells, 0.3 μM): C (C ≤ 35); Percent Degradation at Indicated Concentration (μM): 1 (H2030 cells, 1 μM): C (C ≤ 35); Dmax (H2030 cells): ≤ 35%
3 | C=CC(=O)N1CCN(c2nc(O[C@H](C)CN3CCC(OCCOCCOCC(=O)N[C@H](C(=O)N4C[C@H](O)C[C@H]4C(=O)N[C@@H](C)c4ccc(-c5scnc5C)cc4)C(C)(C)C)CC3)nc3c2CCN(c2cc(O)cc4ccccc24)C3)CC1 [compound 407, (2S,4R)-1-((S)-2-(2-(2-(2-((1-((R)-2-((4-(4-acryloylpiperazin-1-yl)-7-(3-hydroxynaphthalen-1-yl)-5,6,7,8-tetrahydropyrido[3,4-d]pyrimidin-2-yl)oxy)propyl)piperidin-4-yl)oxy)ethoxy)ethoxy)acetamido)-3,3-dimethylbutanoyl)-4-hydroxy-N-((S)-1-(4-(4-methylthiazol-5-yl)phenyl)ethyl)pyrrolidine-2-carboxamide] | – | – | – | – | Percent Degradation at Indicated Concentration (μM) (H2030 cells, 0.3 μM): C (Percent Degradation: C ≤ 35); Percent Degradation at Indicated Concentration (μM) (H2030 cells, 1 μM): C (Percent Degradation: C ≤ 35); Percent Degradation at Indicated Concentration (μM) (H2030 cells, 3 μM): C (Percent Degradation: C ≤ 35)
4 | C=CC(=O)N1CCN(c2nc(NCCCN(C)CCOCCOCCOCCOCC(=O)N[C@H](C(=O)N3C[C@H](O)C[C@H]3C(=O)N[C@@H](C)c3ccc(-c4scnc4C)cc3)C(C)(C)C)nc3c(F)c(-c4cc(O)cc5ccccc45)c(Cl)cc23)CC1 [compound 396, (2S,4R)-1-((2S)-21-((4-(4-acryloylpiperazin-1-yl)-6-chloro-8-fluoro-7-(3-hydroxynaphthalen-1-yl)quinazolin-2-yl)amino)-2-(tert-butyl)-18-methyl-4-oxo-6,9,12,15-tetraoxa-3,18-diazahenicosanoyl)-4-hydroxy-N-((S)-1-(4-(4-methylthiazol-5-yl)phenyl)ethyl)pyrrolidine-2-carboxamide] | C (Percent Degradation: C ≤ 35) | C (Percent Degradation: C ≤ 35) | C (Percent Degradation: C ≤ 35) | ≤ 35% | –
5 | C=CC(=O)N1CCN(c2nc(NCCC(=O)N(C)CCOCCOCCOCCOCCNC(=O)c3ccc(NC(=O)[C@@H]4N[C@@H](CC(C)(C)C)[C@](C#N)(c5ccc(Cl)cc5F)[C@H]4c4cccc(Cl)c4F)c(OC)c3)nc3c(F)c(-c4cc(O)cc5ccccc45)c(Cl)cc23)CC1 [compound 304, (2R,3S,4R,5S)-N-(4-((18-((4-(4-acryloylpiperazin-1-yl)-6-chloro-8-fluoro-7-(3-hydroxynaphthalen-1-yl)quinazolin-2-yl)amino)-15-methyl-16-oxo-3,6,9,12-tetraoxa-15-azaoctadecyl)carbamoyl)-2-methoxyphenyl)-3-(3-chloro-2-fluorophenyl)-4-(4-chloro-2-fluorophenyl)-4-cyano-5-neopentylpyrrolidine-2-carboxamide] | C (Percent Degradation: C ≤ 35) | C (Percent Degradation: C ≤ 35) | C (Percent Degradation: C ≤ 35) | ≤ 35% | –
6 | CCC(=O)N1CCN(c2nc(NCCC(=O)N(C)CCOCCOCCNc3cccc4c3C(=O)N(C3CCC(=O)NC3=O)C4=O)nc3c(F)c(-c4cc(O)cc5ccccc45)c(Cl)cc23)CC1 (stereo not shown) [compound 43, 3-((6-chloro-8-fluoro-7-(3-hydroxynaphthalen-1-yl)-4-(4-propionylpiperazin-1-yl)quinazolin-2-yl)amino)-N-(2-(2-(2-((2-(2,6-dioxopiperidin-3-yl)-1,3-dioxoisoindolin-4-yl)amino)ethoxy)ethoxy)ethyl)-N-methylpropanamide] | – | – | – | – | Percent Degradation at Indicated Concentration (μM): 0.3 (H2030 cells, 0.3 μM): C (C ≤ 35); Percent Degradation at Indicated Concentration (μM): 1 (H2030 cells, 1 μM): C (C ≤ 35); Percent Degradation at Indicated Concentration (μM): 3 (H2030 cells, 3 μM): C (C ≤ 35); Dmax (H2030 cells): ≤ 35%
7 | C=CC(=O)N1CCN(c2nc(O[C@H](C)CN3CCC(OCCOCCOCCNc4cccc5c4C(=O)N(C4CCC(=O)NC4=O)C5=O)CC3)nc3c2CCN(c2cc(O)cc4ccccc24)C3)CC1 (stereo partly drawn) [compound 413, 4-((2-(2-(2-((1-((R)-2-((4-(4-acryloylpiperazin-1-yl)-7-(3-hydroxynaphthalen-1-yl)-5,6,7,8-tetrahydropyrido[3,4-d]pyrimidin-2-yl)oxy)propyl)piperidin-4-yl)oxy)ethoxy)ethoxy)ethyl)amino)-2-(2,6-dioxopiperidin-3-yl)isoindoline-1,3-dione] | – | – | – | – | Percent Degradation at Indicated Concentration (μM) (H2030 cells, 0.3 μM): C (Percent Degradation: C ≤ 35); Percent Degradation at Indicated Concentration (μM) (H2030 cells, 1 μM): C (Percent Degradation: C ≤ 35); Percent Degradation at Indicated Concentration (μM) (H2030 cells, 3 μM): C (Percent Degradation: C ≤ 35)
8 | CN(C)C(=O)CCNc1nc(N2CCN(C(=O)/C=C/CCOCCOCCOCCOc3ccc4c(c3)C(=O)N(C3CCC(=O)NC3=O)C4=O)CC2)c2cc(Cl)c(-c3cc(O)cc4ccccc34)c(F)c2n1 (stereo not shown) [compound 174, (E)-3-((6-chloro-4-(4-(5-(2-(2-(2-((2-(2,6-dioxopiperidin-3-yl)-1,3-dioxoisoindolin-5-yl)oxy)ethoxy)ethoxy)ethoxy)pent-2-enoyl)piperazin-1-yl)-8-fluoro-7-(3-hydroxynaphthalen-1-yl)quinazolin-2-yl)amino)-N,N-dimethylpropanamide] | C (Percent Degradation: C ≤ 35) | C (Percent Degradation: C ≤ 35) | C (Percent Degradation: C ≤ 35) | ≤ 35% | –
9 | CCC(=O)N1CCN(c2nc(NCCC(=O)N(C)CCNc3cccc4c3C(=O)N(C3CCC(=O)NC3=O)C4=O)nc3c(F)c(-c4cc(O)cc5ccccc45)c(Cl)cc23)CC1 (stereo not shown) [compound 41, 3-((6-chloro-8-fluoro-7-(3-hydroxynaphthalen-1-yl)-4-(4-propionylpiperazin-1-yl)quinazolin-2-yl)amino)-N-(2-((2-(2,6-dioxopiperidin-3-yl)-1,3-dioxoisoindolin-4-yl)amino)ethyl)-N-methylpropanamide] | – | – | – | – | Percent Degradation at Indicated Concentration (μM): 0.3 (H2030 cells, 0.3 μM): C (C ≤ 35); Percent Degradation at Indicated Concentration (μM): 1 (H2030 cells, 1 μM): C (C ≤ 35); Percent Degradation at Indicated Concentration (μM): 3 (H2030 cells, 3 μM): C (C ≤ 35); Dmax (H2030 cells): ≤ 35%
10 | C=CC(=O)N1CCN(c2nc(Nc3ccc(OCCOCCOCC(=O)N[C@H](C(=O)N4C[C@H](O)C[C@H]4C(=O)N[C@@H](C)c4ccc(-c5scnc5C)cc4)C(C)(C)C)cc3)nc3c(F)c(-c4cc(O)cc5ccccc45)c(Cl)cc23)CC1 [compound 482] | C (Percent Degradation: C ≤ 35) | C (Percent Degradation: C ≤ 35) | C (Percent Degradation: C ≤ 35) | ≤ 35% | –
11 | C=CC(=O)N1CCN(c2nc(NCCC(=O)N(C)CCOCCOCCOCC(=O)N[C@H](C(=O)N3C[C@H](O)C[C@H]3C(=O)N[C@@H](C)c3ccc(-c4scnc4C)cc3)C(C)(C)C)nc3c(F)c(-c4c(O)cccc4F)c(Cl)cc23)CC1 (atropisomer, axis not shown) [compound 209, (2S,4R)-1-((S)-18-((4-(4-acryloylpiperazin-1-yl)-6-chloro-8-fluoro-7-((S)-2-fluoro-6-hydroxyphenyl)quinazolin-2-yl)amino)-2-(tert-butyl)-15-methyl-4,16-dioxo-6,9,12-trioxa-3,15-diazaoctadecanoyl)-4-hydroxy-N-((S)-1-(4-(4-methylthiazol-5-yl)phenyl)ethyl)pyrrolidine-2-carboxamide] | – | – | C (Percent Degradation: C ≤ 35) | – | –
12 | C=CC(=O)N1CCN(c2nc(NCCC(=O)N(C)CCOCC(=O)N[C@H](C(=O)N3C[C@H](O)C[C@H]3C(=O)N[C@@H](C)c3ccc(-c4scnc4C)cc3)C(C)(C)C)nc3c(F)c(-c4c(O)cccc4F)c(Cl)cc23)CC1 (atropisomer, axis not shown) [compound 205, (2S,4R)-1-((S)-2-(2-(2-(3-(((S)-4-(4-acryloylpiperazin-1-yl)-6-chloro-8-fluoro-7-(2-fluoro-6-hydroxyphenyl)quinazolin-2-yl)amino)-N-methylpropanamido)ethoxy)acetamido)-3,3-dimethylbutanoyl)-4-hydroxy-N-((S)-1-(4-(4-methylthiazol-5-yl)phenyl)ethyl)pyrrolidine-2-carboxamide] | – | – | C (Percent Degradation: C ≤ 35) | – | –

From patent US12552783B2, “Modulators of proteolysis and associated methods of use” (Arvinas Operations, Inc., priority 2018, dated 2026)
